Test systems include HCT-116; NCI-H23; Hs-578T; CCRF-CEM; CAKI-1; OVCAR-8; SK-MEL-5; NCI-H226; SNB-75; RPMI-8226; A498; OVCAR-3; UACC-62; EKVX; MCF7; MDA-N; SW-620; HL-60; KM12; SNB-19.
Common to all, as to test: growth of human tumour cells (NCI), 48 h

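How tested: cells in 96-well plates exposed to compound for 48 hours at five concentrations. Abbreviation: GI50, concentration required for 50% inhibition of growth.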 The source made the active and inactive calls. Cut-off read from the data, not from the text of the source: active = GI50 up to about 1.1 µM and inactive = higher.

As to `COC(=O)n1c(=O)n(-c2ccccc2)c(=O)n1C(=O)OC`, the GI50 in the assay with HCT-116, in the assay on NCI-H23, in the assay with Hs-578T, in the assay on CCRF-CEM, in the assay on CAKI-1 and in the assay on OVCAR-8 was > 100 µM (inactive) in each case. The GI50 in the assay on SK-MEL-5 is > 100 µM (inactive); with NCI-H226 it was > 100 µM (inactive); in the assay on SNB-75, 51.2 µM (inactive); in the assay on RPMI-8226, > 100 µM (inactive); in the assay with A498, > 100 µM (inactive); in the assay with OVCAR-3, > 100 µM (inactive). The GI50 in the assay on UACC-62, with EKVX, with MCF7, in the assay with MDA-N, in the assay with SW-620 and in the assay with HL-60 was > 100 µM (inactive) throughout. In addition, the GI50 in the assay on KM12 and in the assay on SNB-19 was > 100 µM (inactive) each time.
With `c1ccc2c(c1)Sc1nccc3ccnc-2c13`, the GI50 in the assay with HCT-116 was 27.4 µM (inactive); with NCI-H23 it was 36.8 µM (inactive); in the assay on Hs-578T, 14 µM (inactive); in the assay on CCRF-CEM, 56.9 µM (inactive); in the assay with CAKI-1, 7.13 µM (inactive); in the assay on OVCAR-8, 21.9 µM (inactive). In addition, the GI50 in the assay with SK-MEL-5 was 19.1 µM (inactive); in the assay on NCI-H226, 27.9 µM (inactive); in the assay on SNB-75 it was 15.2 µM (inactive); in the assay on RPMI-8226, 55.5 µM (inactive); with A498, 16.6 µM (inactive); with OVCAR-3, > 100 µM (inactive). The GI50 is 23.3 µM (inactive) in the assay with UACC-62; 10.6 µM (inactive) in the assay on EKVX; 12.6 µM (inactive) with MCF7; 57.3 µM (inactive) with MDA-N; 19.3 µM (inactive) in the assay on SW-620; 27.8 µM (inactive) with HL-60. The figures for the GI50 in the assay with KM12 and in the assay on SNB-19 were 61 µM (inactive) and 20.7 µM (inactive), respectively.
In the case of `CCc1c2c([nH]c(=S)c1C#N)CCC2`, the GI50 in the assay with HCT-116 was > 100 µM (inactive); in the assay with NCI-H23 it was > 100 µM (inactive); in the assay on Hs-578T, > 100 µM (inactive); in the assay with CCRF-CEM, 48.8 µM (inactive); with CAKI-1 it was > 100 µM (inactive); with OVCAR-8, > 100 µM (inactive). Moreover, the GI50 in the assay on SK-MEL-5, with NCI-H226, in the assay with SNB-75, in the assay with RPMI-8226, with A498 and in the assay on OVCAR-3 was > 100 µM (inactive) throughout. In addition, the GI50 in the assay on UACC-62 was > 100 µM (inactive); in the assay with EKVX, 16.9 µM (inactive); with MCF7, > 100 µM (inactive); with MDA-N, > 100 µM (inactive); in the assay with SW-620 it was > 100 µM (inactive); in the assay on HL-60, > 100 µM (inactive). The GI50 in the assay with KM12 and in the assay with SNB-19 was > 100 µM (inactive) in each case.
Take `O=C(OCCN1CCCCC1)C(c1ccccc1)C1(O)CCSCC1` (stereo not given): the GI50 in the assay on HCT-116, with NCI-H23, in the assay on Hs-578T, in the assay with CCRF-CEM, in the assay with CAKI-1 and in the assay on OVCAR-8 was > 100 µM (inactive) throughout. Besides, the GI50 with SK-MEL-5 was > 100 µM (inactive); with NCI-H226, > 100 µM (inactive); in the assay with SNB-75, 83.4 µM (inactive); with RPMI-8226 it was > 100 µM (inactive); in the assay with A498 it was > 100 µM (inactive); in the assay on OVCAR-3, > 100 µM (inactive). Also, the GI50 in the assay on UACC-62, with EKVX, with MCF7, in the assay on MDA-N, with SW-620 and in the assay on HL-60 was > 100 µM (inactive) throughout. Besides, the GI50 in the assay on KM12 and in the assay with SNB-19 was > 100 µM (inactive) throughout.
On to `C=C(CC[C@@H](C)[C@H]1CC[C@H]2[C@@H]3C[C@@H](O)[C@H]4C[C@@H](O)CC[C@]4(CO)[C@H]3CC[C@]12C)C(C)C`, for which the GI50 was 2.9 µM (inactive) in the assay with HCT-116; 5.75 µM (inactive) in the assay with NCI-H23; 6.18 µM (inactive) with Hs-578T; 3.56 µM (inactive) in the assay on CCRF-CEM; 5.64 µM (inactive) with CAKI-1; 5.47 µM (inactive) in the assay with OVCAR-8. Besides, the GI50 was 8.79 µM (inactive) in the assay with SK-MEL-5; 9.29 µM (inactive) in the assay on NCI-H226; 8.32 µM (inactive) in the assay on SNB-75; 5.08 µM (inactive) in the assay on RPMI-8226; 6.62 µM (inactive) in the assay with A498; 2.52 µM (inactive) in the assay on OVCAR-3. The GI50 in the assay on UACC-62 is 8.15 µM (inactive); with EKVX, 2.1 µM (inactive); with MCF7 it was 2.67 µM (inactive); with MDA-N it was 8.49 µM (inactive); in the assay with SW-620, 5.98 µM (inactive); in the assay on HL-60, 6.34 µM (inactive). Besides, the figures for the GI50 in the assay on KM12 and in the assay on SNB-19 were 2.09 µM (inactive) and 7.98 µM (inactive), respectively.
With `NC(Cc1ccccc1)C(=O)NC(Cc1ccccc1)NC(=O)C(Cc1c[nH]c2ccccc12)C(=O)O` (stereo not given), the GI50 in the assay on HCT-116 was > 100 µM (inactive); in the assay with NCI-H23, > 100 µM (inactive); with Hs-578T it was 37.7 µM (inactive); with CCRF-CEM it was > 100 µM (inactive); with CAKI-1, > 100 µM (inactive); with OVCAR-8, > 100 µM (inactive). The GI50 is 12 µM (inactive) with SK-MEL-5; > 100 µM (inactive) in the assay with NCI-H226; > 100 µM (inactive) in the assay with SNB-75; > 100 µM (inactive) in the assay on RPMI-8226; > 100 µM (inactive) in the assay on A498; > 100 µM (inactive) in the assay with OVCAR-3. In addition, the GI50 with UACC-62, in the assay with EKVX, with MCF7, in the assay on MDA-N, in the assay with SW-620 and in the assay on HL-60 was > 100 µM (inactive) throughout. The GI50 in the assay on KM12 and in the assay on SNB-19 was > 100 µM (inactive) in each case.
`Cc1ccc2c(c1)C1(C)OC(C=CC1=O)O2` (stereo not given): the GI50 in the assay on HCT-116 was 0.204 µM (active); with NCI-H23, 0.94 µM (active); in the assay on Hs-578T, 2.9 µM (inactive); with CCRF-CEM, 0.114 µM (active); in the assay on CAKI-1, 0.31 µM (active); in the assay with OVCAR-8, 0.282 µM (active). Besides, the GI50 in the assay on SK-MEL-5 is 1.32 µM (inactive); in the assay on NCI-H226, 3.02 µM (inactive); in the assay on SNB-75, 1.68 µM (inactive); in the assay with RPMI-8226, 0.308 µM (active); with A498, 3.89 µM (inactive); with OVCAR-3 it was 0.344 µM (active). Moreover, the GI50 in the assay with UACC-62 was 0.839 µM (active); in the assay on EKVX it was 2.45 µM (inactive); with MCF7, 1.27 µM (inactive); with MDA-N, 0.18 µM (active); in the assay on SW-620, 0.237 µM (active); in the assay with HL-60, 0.104 µM (active). Also, the GI50 in the assay on KM12 was 0.736 µM (active); in the assay on SNB-19, 2.75 µM (inactive).
With `N#CC(C#N)=C/C=C/c1ccccc1[N+](=O)[O-]`, the GI50 is 1.87 µM (inactive) with HCT-116; 4.45 µM (inactive) in the assay with NCI-H23; 3.48 µM (inactive) in the assay with Hs-578T; 7.57 µM (inactive) in the assay with CCRF-CEM; 5.04 µM (inactive) with CAKI-1; 1.96 µM (inactive) with OVCAR-8. In addition, the GI50 with SK-MEL-5 is 3.74 µM (inactive); in the assay with NCI-H226, > 10 µM (inactive); in the assay with SNB-75, > 10 µM (inactive); in the assay on RPMI-8226, 3.19 µM (inactive); with A498, > 10 µM (inactive); in the assay on OVCAR-3, 4.98 µM (inactive). The GI50 in the assay on UACC-62 is 3 µM (inactive); in the assay with EKVX, > 10 µM (inactive); in the assay with MCF7 it was 3.95 µM (inactive); in the assay with MDA-N, 2.44 µM (inactive); in the assay on SW-620 it was 4.08 µM (inactive); in the assay with HL-60, 6.05 µM (inactive). For the same molecule, the values for the GI50 with KM12 and with SNB-19 were 5.02 µM (inactive) and > 10 µM (inactive), respectively.
Regarding `CCCCCCCCCCCCCCCCCCOCC(CCP(=O)(CP(=O)(O)O)Oc1ccccc1)OCCCCCCCCCCCCCCCCCC` (stereo not given), the GI50 with HCT-116, in the assay on NCI-H23, in the assay with Hs-578T, in the assay on CCRF-CEM, in the assay with CAKI-1 and with OVCAR-8 was > 100 µM (inactive) in each case. Besides, the GI50 in the assay with SK-MEL-5, with NCI-H226, with SNB-75, in the assay on RPMI-8226, in the assay with A498 and in the assay with OVCAR-3 was > 100 µM (inactive) in each case. The GI50 with UACC-62, with EKVX, in the assay on MCF7, in the assay with MDA-N, in the assay with SW-620 and in the assay on HL-60 was > 100 µM (inactive) each time. Besides, the GI50 in the assay on KM12 and in the assay with SNB-19 was > 100 µM (inactive) each time.
With `C[C@]12CCNC(=O)C=C1CC[C@@H]1C2CC[C@@]2(C)C1CC[C@@H]2OC(=O)COc1ccc(N(CCCl)CCCl)cc1` (stereo not given in full), the GI50 in the assay on HCT-116 is 3.73 µM (inactive); in the assay on NCI-H23 it was 2.99 µM (inactive); in the assay with Hs-578T, 17.7 µM (inactive); in the assay with CCRF-CEM it was 0.326 µM (active); in the assay on CAKI-1, 4.15 µM (inactive); in the assay on OVCAR-8, 4.09 µM (inactive). Besides, the GI50 with SK-MEL-5 was 7.33 µM (inactive); with NCI-H226, 13.1 µM (inactive); in the assay with SNB-75, 8.75 µM (inactive); in the assay on RPMI-8226, 4.65 µM (inactive); in the assay on A498, 18.6 µM (inactive); in the assay on OVCAR-3, 3.05 µM (inactive). Besides, the GI50 is 1.28 µM (inactive) in the assay on UACC-62; 16.1 µM (inactive) in the assay on EKVX; 1.29 µM (inactive) with MCF7; 13.3 µM (inactive) in the assay on MDA-N; 2.23 µM (inactive) in the assay with SW-620; 1.32 µM (inactive) with HL-60. Moreover, the GI50 is 8.28 µM (inactive) in the assay on KM12 and 10.8 µM (inactive) in the assay on SNB-19.

Source of the values: ChEMBL document CHEMBL1201862, “PubChem BioAssay data set” (2004).
